Measurements reported in PubChem BioAssay (NCI).
Values joined by “and” are separate entries in the source; they are usually repeats but may differ in a detail not shown here. Equal values may be shown once.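 In this assay, cells in 96-well plates receive the compound at five concentrations for 48 hours. Endpoints are linearly interpolated between the surrounding concentrations. The concentration for 50% growth inhibition is given as GI50. At the TGI there is no net growth.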

Experiments:
Assay in all cases: NCI-60 cell line screen, 48 h
CCRF-CEM leukemia = tested on: CCRF-CEM leukemia
HCC-2998 colon = tested on: HCC-2998 colon
HOP-92 NSCLC = tested on: HOP-92 NSCLC
KM20L2 colon = tested on: KM20L2 colon
NCI-H522 lung = tested on: NCI-H522 lung
OVCAR-8 ovarian = tested on: OVCAR-8 ovarian
SF-268 CNS = tested on: SF-268 CNS
SK-MEL-28 melanoma = tested on: SK-MEL-28 melanoma
UO-31 renal = tested on: UO-31 renal
XF 498 CNS = tested on: XF 498 CNS

SMILES	TGI (CCRF-CEM leukemia)	TGI (HCC-2998 colon)	TGI (HOP-92 NSCLC)	TGI (KM20L2 colon)	TGI (NCI-H522 lung)	TGI (OVCAR-8 ovarian)	TGI (SF-268 CNS)	TGI (SK-MEL-28 melanoma)	TGI (UO-31 renal) [µM]	TGI (XF 498 CNS) [µM]	GI50 (CCRF-CEM leukemia)	GI50 (HCC-2998 colon)	GI50 (OVCAR-8 ovarian)	GI50 (HOP-92 NSCLC) [µM]	GI50 (KM20L2 colon) [µM]	GI50 (NCI-H522 lung) [µM]	GI50 (SF-268 CNS) [µM]	GI50 (SK-MEL-28 melanoma) [µM]	GI50 (UO-31 renal) [µM]
CN(C)CCN1N=Nc2cccc3cccc1c23	> 78.8 µM	> 100 µM	> 100 µM	> 100 µM	> 100 µM	> 100 µM	> 100 µM	> 100 µM	> 100	> 100	–	–	–	–	–	–	–	–	–
Cc1c2cc[n+](C)cc2c(C)c2c1[nH]c1ccc(OC(C)C)cc12	23.9 µM and > 64.7 µM	9.95 µM and 20 µM	13.5 µM and 16.8 µM	44.3 µM and 39.8 µM	3.8 µM and 8.1 µM	26 µM and 18.9 µM	1.88 µM and 2.82 µM	12.4 µM and 17.3 µM	> 100	–	2.59 µM and 15.9 µM	2.87 µM and 6.45 µM	0.649 µM and 1.61 µM	–	–	–	–	–	–
Nc1ccc(CCN2CCN(c3cccc(C(F)(F)F)c3)CC2)cc1	> 100 µM	> 100 µM	> 100 µM	> 100 µM	> 100 µM	> 100 µM	> 100 µM	> 100 µM	> 100	> 100	–	–	–	–	–	–	–	–	–
COc1cccc(/C=C\c2cc(OC)c(OC)c(OC)c2)c1	22.8 µM	69.5 µM	> 100 µM	1.56 µM	1.58 µM	> 100 µM	> 100 µM	7.15 µM	33	35.8	–	–	–	–	–	–	–	–	–
CCC12CCC(O)C1N(C)CCC2Sc1ccccc1 (configuration not stated)	> 100 µM	94.8 µM	94.3 µM	> 100 µM	> 100 µM	> 100 µM	> 100 µM	> 100 µM	> 100	> 100	–	–	–	–	–	–	–	–	–
COCC1N=C(c2ccc(OC)c(OCc3ccccc3)c2OC)O[C@H]1c1ccccc1 (some centres not stated)	60.8 µM	> 100 µM	42.4 µM	41.1 µM	69.3 µM	> 100 µM	> 100 µM	69.8 µM	30.1	–	–	–	–	–	–	–	–	–	–
O=C(Nc1ccccc1)O/N=C1/CCCC/C1=C\c1ccccc1	33.1 µM	41.7 µM	46 µM	43.2 µM	30.4 µM	42.8 µM	32.8 µM	31.8 µM	27	–	–	–	–	–	–	–	–	–	–
COC(=O)C1Cc2c(n(C)c3ccccc23)C(c2ccccc2)N1 (configuration not stated)	> 100 µM	> 100 µM	> 100 µM	> 100 µM	93.1 µM	> 100 µM	> 100 µM	> 100 µM	> 100	–	–	–	–	–	–	–	–	–	–
C=CC[P@@]1(=O)O[C@H](c2ccccc2)C(C)N1C(C)C (some centres not stated)	> 100 µM	> 100 µM	–	–	–	> 100 µM	> 100 µM	> 100 µM	> 100	> 100	–	–	–	–	–	–	–	–	–
Cc1cc(N(CCC#N)CCC#N)ccc1N=Nc1ccccc1[N+](=O)[O-]	> 100 µM	> 100 µM	–	–	> 100 µM	> 100 µM	> 100 µM	> 100 µM	> 100	80.9	–	–	–	–	–	–	–	–	–
NC(=O)c1csc(C2O[C@@H](COP(=O)(O)OP(=O)(O)OC[C@H]3OC(n4cnc5c(N)ncnc54)[C@H](O)[C@@H]3O)[C@H](O)[C@@H]2O)n1 (some centres not stated)	> 100 µM	> 100 µM	> 100 µM	> 100 µM	> 100 µM	> 100 µM	> 100 µM	> 100 µM	> 100	> 100	–	–	–	–	–	–	–	–	–
CC(=O)CC(=O)CCCC(=O)Nc1ccc(Cl)cc1Cl	–	> 100 µM	> 100 µM	> 100 µM	> 100 µM	> 100 µM	> 100 µM	> 100 µM	> 100	> 100	–	–	–	–	–	–	–	–	–
O=C1C2c3[nH]c4ccccc4c3C3CCSCC3C2C(=O)N1c1ccccc1 (configuration not stated)	> 100 µM	–	> 100 µM	> 100 µM	> 100 µM	> 100 µM	> 100 µM	> 100 µM	> 100	> 100	–	–	–	–	–	–	–	–	–
CC1=CCP(C(F)(F)F)P(C(F)(F)F)C1 (configuration not stated)	> 100 µM	> 100 µM	> 100 µM	> 100 µM	> 100 µM	> 100 µM	> 100 µM	> 100 µM	> 100	–	–	–	–	–	–	–	–	–	–
O=C1C(c2ccc(Cl)cc2)=[N+]([O-])c2ccccc21	25.5 µM	> 100 µM	–	52.1 µM	21.9 µM	25 µM	28.8 µM	28.5 µM	> 100	34.7	–	–	–	–	–	–	–	–	–
Cc1ccc(C2=[N+]([O-])c3ccccc3C2=O)cc1	25.9 µM	> 100 µM	39.2 µM	98.6 µM	32.4 µM	36 µM	> 75.1 µM	22 µM	> 87.9	17.8	–	–	–	–	–	–	–	–	–
O=NN(CCCl)C(=O)NCc1ccc[n+]([O-])c1	> 100 µM	> 100 µM	> 100 µM	> 100 µM	–	> 100 µM	> 100 µM	> 100 µM	–	> 100	–	–	–	–	–	–	–	–	–
O=C(c1ccccc1)c1ccc2cccc(O)c2n1	51.8 µM	> 100 µM	–	> 100 µM	39.8 µM	71.9 µM	> 100 µM	> 100 µM	> 100	> 100	–	–	–	–	–	–	–	–	–
N.N.NCCCCN.O=C([O-])CC(=O)[O-].O=C([O-])CC(=O)[O-].[Pt+4].[Pt+4]	> 100 µM	> 100 µM	> 100 µM	> 100 µM	62.5 µM	> 100 µM	> 100 µM	> 100 µM	> 100	–	35.6 µM	97.3 µM	> 100 µM	> 100	> 100	18.2	> 100	> 100	59.4
O=[N+]([O-])c1ccc(OCCNc2cccc3ccccc23)cc1	> 100 µM	> 100 µM	> 100 µM	> 100 µM	> 100 µM	> 100 µM	> 100 µM	> 100 µM	> 100	> 100	–	–	–	–	–	–	–	–	–
CCCCCCC(O)C/C=C/CCCCCC/C(C(=O)OC)=C(/O)C(=O)OCC (configuration not stated)	> 100 µM	> 100 µM	> 100 µM	–	> 100 µM	> 100 µM	> 100 µM	> 100 µM	> 100	> 100	–	–	–	–	–	–	–	–	–
CC(C)(C)C(=O)Nc1ccccc1Br	> 100 µM	> 100 µM	> 100 µM	> 100 µM	–	> 100 µM	–	> 100 µM	> 100	> 100	–	–	–	–	–	–	–	–	–
